ChEMBL document CHEMBL1155573, “Aristolactams and dioxoaporphines from Fissistigma balansae and Fissistigma oldhamii” (2000)

Columns and labels:
Type in all cases: functional
Conditions in all cases: Oryctolagus cuniculus
Platelet [1] = assay: Inhibition of thrombin-induced rabbit platelet aggregation at 100 ug/ml
Platelet [2] = assay: Inhibition of platelet-activating factor-induced rabbit platelet aggregation at 100 ug/ml
Platelet [3] = assay: Inhibition of arachidonic acid-induced rabbit platelet aggregation at 100 ug/ml
Platelet [4] = assay: Inhibition of collagen-induced rabbit platelet aggregation at 100 ug/ml
Platelet [5] = assay: Inhibition of arachidonic acid-induced rabbit platelet aggregation at 50 ug/ml
Platelet [6] = assay: Inhibition of collagen-induced rabbit platelet aggregation at 50 ug/ml
Platelet [7] = assay: Inhibition of arachidonic acid-induced rabbit platelet aggregation at 20 ug/ml
Platelet [8] = assay: Inhibition of collagen-induced rabbit platelet aggregation at 20 ug/ml
Platelet [9] = assay: Inhibition of collagen-induced rabbit platelet aggregation at 10 ug/ml
Platelet [10] = assay: Inhibition of arachidonic acid-induced rabbit platelet aggregation at 10 ug/ml

| Structure (SMILES) | inhibition at 100 µg/mL (Platelet [1]) [%] | inhibition at 100 µg/mL (Platelet [2]) [%] | inhibition at 100 µg/mL (Platelet [3]) [%] | inhibition at 100 µg/mL (Platelet [4]) [%] | inhibition at 50 µg/mL (Platelet [5]) [%] | inhibition at 50 µg/mL (Platelet [6]) [%] | inhibition at 20 µg/mL (Platelet [7]) [%] | inhibition at 20 µg/mL (Platelet [8]) [%] | inhibition at 10 µg/mL (Platelet [9]) [%] | inhibition at 10 µg/mL (Platelet [10]) [%] |
| --- | --- | --- | --- | --- | --- | --- | --- | --- | --- | --- |
| COc1c(O)cc2c3c(cc4ccc(O)cc4c13)NC2=O [ARISTOLACTAM AIIIA] | 90.6 | 80.7 | 56.9 | 39.6 |  |  |  |  |  |  |
| COc1c(O)cc2c3c(cc4ccccc4c13)NC2=O [ARISTOLACTAM AII] | 90 | 78.3 | 86.3 | 82.5 |  |  |  |  |  |  |
| COc1ccc2cc3c4c(cc(OC)c(OC)c4c2c1)C(=O)N3 [ARISTOLACTAM BIII] | 89.3 | 60.6 | 71.9 | 0 | 86.6 | 59.1 |  |  |  |  |
| COc1c(O)c(OC)c2c3c(cc4ccccc42)NC(=O)c13 [ARISTOLACTAM F II] | 83.9 | 6.7 | 8.5 | 9.7 | 16.5 | 14.5 | 52.5 | 81.7 | 81.7 | 85.4 |
| CC(=O)Oc1ccccc1C(=O)O [ASPIRIN] |  | 90.4 | 0 | 87.8 |  |  |  |  |  |  |
| COc1cccc2c1c(OC)c1c3c(cc(O)c(OC)c32)C(=O)N1 [ENTEROCARPAM I] | 86.5 | 70.8 | 2.2 | 43 | 13.5 | 25.8 | 46.4 | 72.9 | 83.7 | 83.5 |
| COc1cc2c3c(cc4ccc(O)cc4c3c1OC)NC2=O [GONIOTHALACTAM] | 89.8 | 67.3 | 13.6 | 10.5 | 50.4 | 17.3 | 81.6 | 75.9 | 83 | 85.9 |
| COc1c(O)cc2c3c(cc4ccccc4c13)NC(=O)C2=O [NORARISTOLODIONE] | 88.7 | 82.5 | 65.8 | 40.6 |  | 72 |  | 84.7 |  |  |
| COc1cc2c3c(cc4ccccc4c3c1O)NC2=O [PIPEROLACTAM A] | 84.3 | 84.1 | 0 | 0 | 14.7 | 22.2 | 83.5 | 84.2 |  |  |
| COc1c(OC)c(OC)c2c3c(cc4ccccc42)NC(=O)c13 [PIPEROLACTAM C] | 83.7 | 6.1 | 7.8 | 0 | 89.4 | 82 |  |  |  |  |
| COc1c(OC)c(OC)c2c3c(cc4ccc(O)cc42)NC(=O)c13 [STIGMALACTAM] | 91.9 | 70.8 | 14.2 | 10.1 | 18.8 | 30.8 | 46.4 | 72.9 |  |  |
| COc1cc2c3c(cc4c(O)cccc4c3c1OC)NC2=O [VELUTINAM] | 92.1 | 87.3 | 37.5 | 18.4 | 77.5 | 65.4 |  |  |  |  |
